Literature values in patent EP0238198A2, “Method of modifying the lipid structure function and expression of cell membranes and pharmaceutical compositions for use therein” (Habib, Nagy Adly, priority 1986, dated 1987).

Test system: hepatoma cell lines
Details: in vitro; cited from earlier work

Question: For `CCCCCCCCC1=C(CCCCCCCC(=O)O)C1` [sterculic acid], which growth inhibition is on record?
Answer: growth inhibition

Question: What about the saturation index of the same molecule?
Answer: increase in their saturation index
